18 compounds from PubChem BioAssay AID330 (DTP/NCI, 2004) can be followed below.

The subject of the assay is P388 leukemia ip, CD2F1 mice, survival T/C. Put plainly: NCI In Vivo Anticancer Drug Screen. Data for tumor model P388 Leukemia (intraperitoneal) in CD2F1 (CDF1) mice. The settings on record: endpoint: median survival time, higher = longer survival. In outline: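 Mice carrying the transplanted tumor received test compound or vehicle. Survival was recorded in each group, and the value is the treated-group measurement divided by that of the vehicle-treated control group.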

The mark [1] stands for this setting: dose: 50.0 mg/kg/injection, schedule: Q01DX005 (ip), vehicle: Klucel (hydroxypropylcellulose) (HPC).
Where [2] appears, read: dose: 100.0 mg/kg/injection, schedule: Q01DX005 (ip), vehicle: Klucel (hydroxypropylcellulose) (HPC).
Setting [3] is: dose: 200.0 mg/kg/injection, schedule: Q01DX005 (ip), vehicle: Klucel (hydroxypropylcellulose) (HPC).
[4] abbreviates: dose: 50.0 mg/kg/injection, schedule: Q01DX005 (ip), vehicle: saline with Tween-80.
Where [5] appears, read: dose: 100.0 mg/kg/injection, schedule: Q01DX005 (ip), vehicle: saline with Tween-80.
Where [6] appears, read: dose: 200.0 mg/kg/injection, schedule: Q01DX005 (ip), vehicle: saline with Tween-80.
The mark [7] stands for this setting: dose: 50.0 mg/kg/injection, schedule: Q01DX009 (ip), vehicle: saline.
The mark [8] stands for this setting: dose: 100.0 mg/kg/injection, schedule: Q04DX002 (ip), vehicle: saline.
Where [9] appears, read: dose: 200.0 mg/kg/injection, schedule: Q01DX009 (ip), vehicle: saline.
The mark [10] stands for this setting: dose: 100.0 mg/kg/injection, schedule: Q01DX009 (ip), vehicle: saline.

“And” between values parts separate entries of the source, which are not always exact repeats. Equal values may be shown once. Toxic doses and inconclusive results are not listed.

Regarding `CC1(O)c2ccccc2-c2nc3ccccc3nc21` (stereo not drawn), the T/C reads like this: (dose: 100.0 mg/kg/injection, schedule: Q04DX003 (ip), vehicle: saline sonified) 110 % of control; (dose: 200.0 mg/kg/injection, schedule: Q04DX003 (ip), vehicle: saline sonified) 110 % of control; (dose: 400.0 mg/kg/injection, schedule: Q04DX003 (ip), vehicle: saline sonified) 100 % of control.
With `NC(=O)c1ccc(Cl)cc1C(N)=O`, the T/C runs as follows: under setting [1], 99 % of control; under setting [2], 105 % of control; under setting [3], 99 % of control.
Take `CCCCC(CC)CN(CC(CC)CCCC)C(=O)C(C)O` (stereo not drawn): the T/C is, setting by setting: under setting [4], 105 % of control; under setting [5], 103 % of control; under setting [6], 108 % of control.
As to `O/N=C(/CC(c1ccccc1)N1CCOCC1)c1ccccc1` (stereo not drawn), the T/C runs as follows: under setting [1], 93 % of control; under setting [2], 90 % of control.
Regarding `CC(=O)Nc1ccc(S(=O)(=O)Nc2ccc3oc(=O)[nH]c3c2)cc1`, the T/C is, setting by setting: (dose: 100.0 mg/kg/injection, schedule: Q01DX001 (ip), vehicle: Klucel (hydroxypropylcellulose) (HPC)) 98 % of control; (dose: 200.0 mg/kg/injection, schedule: Q01DX001 (ip), vehicle: Klucel (hydroxypropylcellulose) (HPC)) 93 % of control; (dose: 400.0 mg/kg/injection, schedule: Q01DX001 (ip), vehicle: Klucel (hydroxypropylcellulose) (HPC)) 92 % of control.
With `O=C1C(Cl)=C(N=Nc2c(Cl)c(O)c3ccccc3c2O)C(=O)c2ccccc21`, the T/C was 101 % of control and 111 % of control (dose: 1.56 mg/kg/injection, schedule: Q01DX009 (ip), vehicle: saline); 103 % of control and 108 % of control (dose: 3.12 mg/kg/injection, schedule: Q01DX009 (ip), vehicle: saline); 108 % of control and 109 % of control (dose: 6.25 mg/kg/injection, schedule: Q01DX009 (ip), vehicle: saline); 107 % of control and 117 % of control (dose: 12.5 mg/kg/injection, schedule: Q01DX009 (ip), vehicle: saline); 102 % of control and 109 % of control (dose: 25.0 mg/kg/injection, schedule: Q01DX009 (ip), vehicle: saline); 109 % of control (dose: 25.0 mg/kg/injection, schedule: Q01DX010 (ip), vehicle: saline). In addition, the T/C by setting is: under setting [7], 90 % of control and 97 % of control; (dose: 50.0 mg/kg/injection, schedule: Q01DX010 (ip), vehicle: saline) 100 % of control; (dose: 100.0 mg/kg/injection, schedule: Q01DX010 (ip), vehicle: saline) 109 % of control.
`CCOC(=O)c1cc[nH]c1CC(=O)NC`: the T/C was 98 % of control and 107 % of control (dose: 25.0 mg/kg/injection, schedule: Q01DX001 (ip), vehicle: saline with Tween-80); 102 % of control and 105 % of control (dose: 50.0 mg/kg/injection, schedule: Q01DX001 (ip), vehicle: saline with Tween-80); 103 % of control and 113 % of control (dose: 100.0 mg/kg/injection, schedule: Q01DX001 (ip), vehicle: saline with Tween-80); 113 % of control and 116 % of control (dose: 200.0 mg/kg/injection, schedule: Q01DX001 (ip), vehicle: saline with Tween-80).
Regarding `O=C1CC(c2ccccc2)C(c2ccccc2)C(=O)O1` (stereo not drawn), the T/C (dose: 100.0 mg/kg/injection, schedule: Q04DX003 (ip), vehicle: Klucel (hydroxypropylcellulose) (HPC)) was 87 % of control; the T/C (dose: 200.0 mg/kg/injection, schedule: Q04DX003 (ip), vehicle: Klucel (hydroxypropylcellulose) (HPC)) is 93 % of control; the T/C (dose: 400.0 mg/kg/injection, schedule: Q04DX003 (ip), vehicle: Klucel (hydroxypropylcellulose) (HPC)) was 91 % of control.
Consider `Cc1nc(C(=O)O)c(C(=O)O)[nH]1`, for which the T/C reads like this: (dose: 100.0 mg/kg/injection, schedule: Q01DX009 (ip), vehicle: saline sonified) 90 % of control; (dose: 200.0 mg/kg/injection, schedule: Q01DX009 (ip), vehicle: saline sonified) 100 % of control.
Consider `CC(/C=N\Nc1ccc(Cl)cc1)=N/NC(=O)C[N+](C)(C)C`, for which the T/C by setting is: under setting [8], 101 % of control; (dose: 200.0 mg/kg/injection, schedule: Q04DX002 (ip), vehicle: saline) 100 % of control; (dose: 400.0 mg/kg/injection, schedule: Q04DX002 (ip), vehicle: saline) 92 % of control.
Take `Nc1ccn(C2OC(CO)C(O)C2O)c(=O)n1` (stereo not drawn): the T/C by setting is: (dose: 2.0 mg/kg/injection, schedule: Q01DX009 (ip), vehicle: saline) 160 % of control; (dose: 10.0 mg/kg/injection, schedule: Q01DX005 (ip), vehicle: saline) 160 % of control; (dose: 60.0 mg/kg/injection, schedule: Q01DX005 (ip), vehicle: saline) 190 % of control; under setting [8], 120 % of control; (dose: 128.0 mg/kg/injection, schedule: Q01DX009 (ip), vehicle: saline) 170 % of control and 250 % of control; (dose: 200.0 mg/kg/injection, schedule: Q01DX005 (ip), vehicle: saline) 200 % of control. Moreover, the T/C reads like this: under setting [9], 100 % of control; (dose: 200.0 mg/kg/injection, schedule: Q04DX003 (ip), vehicle: saline) 100 % of control; (dose: 324.0 mg/kg/injection, schedule: Q04DX003 (ip), vehicle: saline) 190 % of control; (dose: 400.0 mg/kg/injection, schedule: Q01DX009 (ip), vehicle: saline with Tween-80) 100 % of control; (dose: 400.0 mg/kg/injection, schedule: Q01DX009 (ip), vehicle: saline) 99 % of control and 110 % of control; (dose: 500.0 mg/kg/injection, schedule: Q04DX003 (ip), vehicle: saline) 200 % of control. Also, the T/C is 90 % of control (dose: 512.0 mg/kg/injection, schedule: Q01DX009 (ip), vehicle: saline); 99 % of control (dose: 800.0 mg/kg/injection, schedule: Q01DX009 (ip), vehicle: saline with Tween-80); 110 % of control and 91 % of control (dose: 800.0 mg/kg/injection, schedule: Q01DX009 (ip), vehicle: saline); 210 % of control (dose: 900.0 mg/kg/injection, schedule: Q04DX003 (ip), vehicle: saline); 100 % of control (dose: 1200.0 mg/kg/injection, schedule: Q01DX009 (ip), vehicle: saline with Tween-80); 91 % of control (dose: 1600.0 mg/kg/injection, schedule: Q01DX009 (ip), vehicle: saline). The T/C was 120 % of control (dose: 1600.0 mg/kg/injection, schedule: Q04DX002 (ip), vehicle: saline) and 90 % of control (dose: 2400.0 mg/kg/injection, schedule: Q01DX009 (ip), vehicle: saline with Tween-80).
For the compound `NCCc1ccccc1`, the T/C runs as follows: under setting [7], 104 % of control; under setting [10], 86 % of control.
As to `CC(=O)n1oc2c(Br)cc(Br)cc2c1=O`, the T/C was 116 % of control under setting [1], 103 % of control under setting [2] and 107 % of control under setting [3].
Consider `Cc1cc(Nc2ccccc2C(=O)N/N=C/c2ccc(N(CCCl)CCCl)cc2)nc2ccc(Cl)cc12`, for which the T/C under setting [7] is 95 % of control, the T/C under setting [10] was 90 % of control and the T/C under setting [9] was 95 % of control.
Regarding `CSc1nc(=O)[nH]nc1SCc1ccccc1`, the T/C reads like this: (dose: 50.0 mg/kg/injection, schedule: Q01DX009 (ip), vehicle: Klucel (hydroxypropylcellulose) (HPC)) 114 % of control and 120 % of control; (dose: 100.0 mg/kg/injection, schedule: Q01DX009 (ip), vehicle: Klucel (hydroxypropylcellulose) (HPC)) 101 % of control and 111 % of control; (dose: 200.0 mg/kg/injection, schedule: Q01DX009 (ip), vehicle: Klucel (hydroxypropylcellulose) (HPC)) 108 % of control and 120 % of control.
On to `O=C1CC2C(=O)N(Cc3ccccc3)C(=O)C2C(=O)N1` (stereo not drawn), for which the T/C by setting is: under setting [4], 99 % of control; under setting [5], 97 % of control; under setting [6], 92 % of control.
Turning to `CC[N+](C)(C)c1ccc(/C=C(/C#N)C(=O)OC)cc1`, the T/C reads like this: (dose: 50.0 mg/kg/injection, schedule: Q01DX009 (ip), vehicle: saline with Tween-80) 100 % of control; (dose: 100.0 mg/kg/injection, schedule: Q01DX009 (ip), vehicle: saline with Tween-80) 103 % of control.
Turning to `O=C(CBr)c1ccc(C(F)(F)F)cc1`, the T/C (dose: 6.25 mg/kg/injection, schedule: Q01DX009 (ip), vehicle: DMSO) is 99 % of control and the T/C (dose: 12.5 mg/kg/injection, schedule: Q01DX009 (ip), vehicle: DMSO) was 88 % of control.
